Assay results from article PMC5665932, “A novel peptide that improves metabolic parameters without adverse central nervous system effects” (Scientific Reports, 2017).
Where a SMILES comes first, the peptide text is derived from it.

Experiments:
[1] = biological target: T1, CB1R (Mus musculus, UniProt P47746); assay: Displacement of [3H]SR141716A binding, membranes of 3T3-L1 cells; details: membranes (250 μg) of 3T3-L1 cells endogenously expressing CB1R, [3H]SR141716A 3 nM, Pep19 0–10 μM, 1 h at 30 °C, pH 7.8, n = 3; read-out: IC50, displaces [3H]SR141716A binding
T1 construct: Membranes were prepared from 3T3-L1 cells endogenously expressing CB1R; endogenous in cells; host or cells: 3T3-L1 cells (membranes)
Procedure: Membranes were prepared from 3T3-L1 cells endogenously expressing CB1R, and displacement ligand binding assays were carried out as previously described[8] with minor modifications. Briefly, membranes (250 μg) were incubated with [^3H] SR141716A (3 nM) in 50 mM Tris-Cl, pH 7.8, containing 1 mM EGTA, 5 mM MgCl2, and protease inhibitor cocktail in the presence of Pep19 (0–10 μM) for 1 h at 30 °C. At the end of the incubation period, membranes were filtered using a Brandel filtration system and GF/B filters (presoaked for 2 h at room temperature with 0.1% polyethyleneimine containing 0.2% fatty acid free BSA), filters were washed 3 times with ice-cold 50 mM Tris-Cl (pH 7.4) and bound radioactivity measured using a liquid scintillation counter.
Supplemental Figure 1. Ligand binding studies with Pep19. Membranes were prepared from 3T3L-1 cells endogenously expressing CB1R, and displacement ligand binding assays were carried out as previously described8 with minor modifications. Membranes (250 μg) were incubated with [3H]SR141716A (3 nM) in 50 mM Tris-Cl, pH 7.8, containing 1 mM EGTA, 5 mM MgCl2, and protease inhibitor cocktail in the presence of Pep19 (0-10 μM).
Values in the absence of Pep19 were taken as 100%. Data represent mean ± […]
(1 picture or pasted object on this page, not shown here)

[2] = system: DIO Wistar rats; assay: Tail-cuff blood pressure and heart rate in DIO rats; format: in vivo; details: oral by gavage, mean ± SEM
Procedure: Measurements of systolic blood pressure were performed at the proximal part of the tail, by a tail-cuff method using the Kent RTBP2000 system and the Kent RTB001-R data acquisition system (Kent Scientific Corporation, Torrington, CT, USA) from 9 to 11 a.m. Before measurements, rats were warmed for 10 min and three stable consecutive measurements were taken and averaged after animals have been trained for proper adaptation to the procedures.

[3] = system: C57BL/6J mice; assay: Tetrad cannabinoid tests (catalepsy, tail temperature, locomotor activity, hot plate); format: in vivo; details: n = 6/group
Procedure: C57BL/6J mice were treated i.p. with Pep19 (0.1 or 1 mg/kg), the CB1R agonist WIN55,212-2 (5 mg/kg) or vehicle (n = 6 per group) and evaluated in the tetrad cannabinoid tests. Another group of animals received Pep19 (0.1 or 1 mg/kg) or saline i.p. for 10 days, once a day. In the last day of treatment the animals were subjected to the tetrad cannabinoid tests 30 minutes after the i.p. administration. The CB1 agonist WIN55,212-2 (5 mg/kg) was administrated i.p. 30 minutes before the experiments as a positive control (n = 6 per group).
It was assayed by the bar test[40], 30 min after drug administration. Briefly, each mouse was placed on a bar oriented parallel to and approximately 4 cm above the bench surface. Cataleptic behavior was defined as the time the animal remained motionless holding on to the bar; cutoff = 300 s[41].
It was determined by using a thermal probe (Thermocom®, Nashua, NH 03062, EUA) positioned 50 cm of the animal. The mean of five pictures of five different tail regions was compared between a basal evaluation and another observation 35 min after drug administration.
It was determined by an open field test, in which a mouse was placed in a circular cage (40 cm diameter), 37 min after drug administration. The distance traveled by the animal was recorded for 10 min by the software ANY-MAZE (Stoelting).
The mouse was placed on a heated plate at 56 °C. An experimenter measured the time it took for the mouse to lick the paws or jump off of the hot plate; cutoff = 30 s[42]. The variation between a basal evaluation and another one taken 45 min after drug administration was defined as the result.

[4] = system: Male Wistar rats; assay: Elevated plus maze; format: in vivo; details: 100–600 µg/kg, one hour after administration, 5 min, n = 7–9/group
Procedure: Male Wistar rats were tested in a wooden-made elevated plus maze according to Hefner and Holmes[43] one hour after vehicle or Pep19 i.p. administration (100–600 µg/kg). The percentage of entries, time spent in the open arms, and the number of enclosed arms entries for 5 min were analyzed by the Anymaze Software (version 4.5, Stoelting, USA). Locomotor activity and speed traveled were also recorded.

[5] = system: Male Wistar rats; assay: Forced swim test; format: in vivo; details: first 5 min of the swim test, n = 6/group (Pep19), n = 8–10/group (rimonabant)
Procedure: The forced swim test was based on previous designs. Male Wistar rats were placed in a cylindrical plexiglass tank (50 cm high and 30 cm diameter) filled with water (19 °C) up to a level of 25 cm from the bottom. The animal’s behavior during the first 5 min of the swim test was scored by a trained observer and the following measures were taken: (1) time spent swimming, defined as movements of all four limbs, swimming around the tank or diving and (2) time spent floating, defined as the time the animal remained immobile with only occasional slight movements to keep the body balanced and the nose above the water.

[6] = system: HEK293T cells; format: cell-based; details: up to 100 µM, n = 3/group
Procedure: (§1) HeLa and HEK293-T cells were cultured in DMEM (Dulbecco’s Modified Eagle Medium, Gibco®, USA) containing 10% fetal bovine serum (complete medium), penicillin and streptomycin (Gibco®, USA) at 37 °C and in presence of 5% of CO2. For cell counting, single cell suspension of HeLa and HEK293-T cells were rinsed with PBS and treated with 0.4% Trypan blue in PBS for 90 s. Excess dye was removed, and the cells were washed twice with PBS before counting. For a control of 100% permeabilized cells they were treated with 50% ethanol for 1 min and then stained as described above. In all of the experiments cellular viability was greater than 98% (data not shown). The MTT (3-(4,5-dimethylthiazol-2-yl)-2,5-diphenyltetrazolium bromide) tetrazolium reduction assays were conducted in a 96-well format. The optical density was measured at 570 nm using a SpectraMax M2 (Molecular Devices, Sunnyvale, CA, USA). Three independent experiments were conducted in triplicates for each treatment.

[7] = system: HeLa cells; format: cell-based; details: up to 100 µM, n = 3/group
Procedure: as §1

[8] = system: Male C57BL/6J mice; format: in vivo; details: 0.1 or 1 mg/kg i.p. for 10 days
Procedure: Male C57BL/6J mice received a chronic treatment with Pep19 (0.1 or 1 mg/kg) or saline administrated i.p. for 10 days, once a day. The same animal was tested in the EPM and FST 30 and 35 minutes after the last injection, respectively.
Supplemental Figure 2. In vivo assays showing results of chronic treatment with Pep19 i.p. for 10 days. To further confirm the lack of in vivo effects of Pep19, it was chronically administrated for 10 days, and the behavior effects were evaluated in the tetrad cannabinoid tests, consisting of (a) catalepsy, (b) tail temperature, (c) locomotor activity and (d) hot plate test. Note that no […]
(saline) or Pep19 (one-way ANOVA followed by Tukey’s test, n = 6/group), […]
(a-d; * P<0.05). In the elevated plus maze (e, f) the anxiety-like activity of chronic administration was evaluated following i.p. injections of 0.1 or 1 mg/kg […]
groups treated with vehicle or Pep19 (one-way ANOVA followed by Tukey’s […]
locomotor (g) and speed travelled (h) in the elevated plus maze. In the forced swim test (i), chronic administration of Pep19 i.p. for 10 days produced no significant differences (one-way ANOVA followed by Tukey’s test, n = 6-7/ […]

T1 sequence (P47746 whole entry): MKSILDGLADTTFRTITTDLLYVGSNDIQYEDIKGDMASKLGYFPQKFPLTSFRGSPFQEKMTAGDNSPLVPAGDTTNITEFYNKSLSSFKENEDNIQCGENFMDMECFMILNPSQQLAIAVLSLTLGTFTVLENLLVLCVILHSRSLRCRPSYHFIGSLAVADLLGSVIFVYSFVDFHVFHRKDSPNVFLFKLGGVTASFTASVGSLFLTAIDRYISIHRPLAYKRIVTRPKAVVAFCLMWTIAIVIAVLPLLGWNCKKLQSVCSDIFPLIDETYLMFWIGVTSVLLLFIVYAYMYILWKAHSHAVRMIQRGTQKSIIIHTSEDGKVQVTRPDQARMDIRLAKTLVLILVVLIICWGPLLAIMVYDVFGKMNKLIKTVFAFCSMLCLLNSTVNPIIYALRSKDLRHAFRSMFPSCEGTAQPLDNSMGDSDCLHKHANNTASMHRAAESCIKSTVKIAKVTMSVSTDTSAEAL

CC[C@H](C)[C@H](NC(=O)[C@@H](NC(=O)[C@@H](N)CC(=O)O)[C@@H](C)CC)C(=O)N[C@@H](C)C(=O)N[C@@H](CC(=O)O)C(=O)N[C@@H](CC(=O)O)C(=O)N[C@@H](CCC(=O)O)C(=O)N1CCC[C@H]1C(=O)N[C@@H](CC(C)C)C(=O)N[C@H](C(=O)O)[C@@H](C)O [Pep19] (H-DIIADDEPLT-OH)
IC50 [1]: ~4.9 pM | Heart rate ([2]; 100 µg/Kg): 405.3 ± 2.3 (n = 3) beats/min | Heart rate ([2]; 300 µg/Kg): 399.9 ± 5.8 (n = 3) beats/min | Heart rate ([2]; 600 µg/Kg): 408.5 ± 4.1 (n = 3) beats/min | cannabinoid tetrad after chronic treatment ([3]; 0.1 or 1 mg/kg i.p. for 10 days, once a day, tested 30 minutes after last administration): significant differences were observed between the groups treated with vehicle | cannabinoid tetrad (catalepsy, hot plate, locomotor activity, tail temperature) ([3]; 0.1 or 1 mg/kg i.p., single administration): has no effect on the cannabinoid tetrad | elevated plus maze: distance moved, speed, ratio of open/total arms entries and time spent [4]: did not alter | forced swim test: time spent swimming and time spent floating [5]: produced no significant differences | cell toxicity, MTT reduction assay [6]: has no ability to induce cell toxicity | cell toxicity, MTT reduction assay [7]: has no ability to induce cell toxicity | elevated plus maze after chronic treatment: anxiety-like activity, locomotor and speed travelled ([8]; 30 minutes after the last injection, n=6-7/group): no significant differences were observed | forced swim test after chronic treatment ([8]; 35 minutes after the last injection, n = 6-7/group): produced no
